The record followed here is patent US6403593B1, “Triazole compounds and the use thereof” (Abbott Laboratories, priority 1995, dated 2002).

In one data set the target is T1, human D3 receptor (Homo sapiens, UniProt P35462).
T1 construct: host or cells: CCL 1.3 mouse fibroblasts
Description: D3 binding assay (125I-iodosulpiride). To be noted: for Selectivity KiD2/KiD3: ratio of D2 (3H-spiperone) Ki to D3 (125I-sulpiride) Ki. Here is the method:
Cloned human D3 receptor-expressing CCL 1.3 mouse fibroblasts obtained from Res. Biochemicals Internat. One Strathmore Rd., Natick, Mass. 01760-2418 USA, were used for the binding studies.
The D3-expressing cells where grown in RPMI-1640 containing 10% fetal calf serum (GIBCO No. 041-32400 N); 100 U/ml penicillin and 0.2% streptomycin (GIBCO BRL, Gaithersburg, Md., USA). After 48h, the cells were washed with PBS and incubated with 0.05% trypsin-containing PBS for 5 min. Neutralization with medium was then carried out, and the cells were collected by centrifugation at 300×g. To lyze the cells, the pellet was briefly washed with lysis buffer (5 mM tris-HCl, pH 7.4, with 10% glycerol) and then incubated in a concentration of 10^7 cells/ml of lysis buffer at 4° C. for 30 min. The cells were centrifuged at 200×g for 10 min and the pellet was stored in liquid nitrogen.
For the D3 receptor binding assay, the membranes were suspended in incubation buffer (50 mM tris-HCl, pH 7.4, with […], 5 mM KCl, 2 mM CaCl2, 2 mM MgCl2, 10 μM quinolinol, 0.1% ascorbic acid and 0.1% BSA) in a concentration of about 10^6 cells/250 μl of assay mixture and incubated at 30° C. with 0.1 nM ^125iodosulpiride in the presence and absence of test substance. The non-specific binding was determines using 10^−6 M spiperone.
After 60 min, the free and the bound radioligand was separated by filtration through GF/B glasd fiber filters (Whatman, England) on a Skatron cell collector (Skatron, Lier, Norway), and the filters were washed with ice-cold tris-HCl buffer, pH 7.4. The radioactivity collected on the filters was quantified using a Packard 2200 CA ligand scintillation counter.
The Ki values were determined by non-linear regression analysis using the LIGAND program.

Setting [1] is: cloned human D3 receptor in CCL 1.3 mouse fibroblast membranes, 0.1 nM 125I-iodosulpiride, read-out: D3 125I-sulpiride Ki.

Each structure is given as a SMILES string. Counter-ions that a name gives are not always drawn. Like-named read-outs stand apart in the source and are kept apart here.

T1 sequence (P35462 whole entry): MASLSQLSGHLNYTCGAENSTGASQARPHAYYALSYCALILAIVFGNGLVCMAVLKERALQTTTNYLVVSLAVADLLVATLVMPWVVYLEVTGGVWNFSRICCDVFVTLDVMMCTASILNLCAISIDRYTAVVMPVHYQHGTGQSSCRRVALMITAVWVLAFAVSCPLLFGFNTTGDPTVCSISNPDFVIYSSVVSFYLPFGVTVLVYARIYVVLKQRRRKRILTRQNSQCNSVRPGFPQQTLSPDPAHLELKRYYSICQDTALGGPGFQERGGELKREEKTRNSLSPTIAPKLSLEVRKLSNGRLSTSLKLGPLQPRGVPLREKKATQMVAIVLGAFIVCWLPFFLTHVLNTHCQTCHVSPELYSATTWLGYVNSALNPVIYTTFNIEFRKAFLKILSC

The term melting point denotes the temperature, or range, at which the solid turns liquid. In the case of `CNc1nnc(SCCCN2CCN(c3cccc(C(F)F)c3)CC2)n1C` (as salt: hydrochloride) [Example 37], the melting point was in the range of 234 to 235 °C.

Broadly, the Ki is a dissociation constant, usually derived from enzyme kinetics or from competition with a known ligand. On to `Cn1c(N)nnc1SCCCN1CCN(c2cccc(C(F)(F)F)c2)CC1` [Example 10], for which, on human D3 receptor, the Ki was determined as 4.5 nM and the “Selectivity KiD2/KiD3” value was determined as 49.

For the compound `Cn1c(N)nnc1SCCCN1CCN(c2cc(C(C)(C)C)cc(C(C)(C)C)c2)CC1` [Example 15], the Ki at human D3 receptor (setting [1]) came out at 8.8 nM. The “Selectivity KiD2/KiD3” value on human D3 receptor is recorded as 58.

`CCn1c(N)nnc1SCCCN1CCN(c2cccc(C(F)F)c2)CC1` [Example 24]: the Ki at human D3 receptor (setting [1]) was 1.8 nM. Further, the “Selectivity KiD2/KiD3” value at human D3 receptor is on record as 67.

For the compound `CNc1nnc(SCCCN2CCN(c3cccc(C(F)F)c3)CC2)n1C` [Example 37], the inhibition constant (Ki) at human D3 receptor (setting [1]) was determined as 1.7 nM. Moreover, the “Selectivity KiD2/KiD3” value at human D3 receptor was 176.

Compound `Cc1cc(N2CCN(CCCSc3nnc(N)n3C)CC2)nc(-n2cccc2)n1` [Example 41] came in with a melting point of 65 to 67 °C. In addition, at human D3 receptor (setting [1]), the Ki amounted to 8.1 nM. In addition, the “Selectivity KiD2/KiD3” value at human D3 receptor worked out at 185.

Turning to `CC(=CCN1CCN(c2cc(C(F)(F)F)nc(C(C)(C)C)n2)CC1)CSc1nnc(N)n1C` [Example 42], the melting point lay in the range of 67 to 72 °C. At human D3 receptor (setting [1]), the Ki is 13.4 nM. Besides, the “Selectivity KiD2/KiD3” value on human D3 receptor came to 182.

On to `Cc1nnc(/C=C/CN2CCN(c3ccccc3)CC2)n1-c1ccccc1` [reference compound], for which the “affinity for the D3 receptor (in words)” value at human D3 receptor (D3 binding assay) is given as “virtually no affinity”. For the same compound, the Ki at human D3 receptor (setting [1]) amounted to 4100 nM.
